Consider two molecules from ChEMBL document CHEMBL3244261, “3-hydroxyisoxazole-5-hydroxamic acid” (1977).

Activity calls are given as the source filed them. The calls are words filed in the database; no cut-off is given here.

Usually T/C stands for the ratio of treated to control.

Test [1] deals with P388. The experiment in a line: Antitumor activity against mouse P388 cells allografted in mouse assessed as tumor growth inhibition at 100 mg/kg relative to control. Format: functional.
The test system of test [2] is L1210. The experiment in a line: Antitumor activity against mouse L1210 cells allografted in mouse at 100 mg/kg. Format: functional, organism-based. The arrangement: dose 100 mg/kg.

As to `O=C(/C=C(\Cl)C(=O)NO)NO`, the T/C in test [1] is 154%. In addition, the result in test [2] was inactive. For the molecule `O=C(NO)c1cc(O)no1`, in test [2], the result was inactive.
